Results as given in US12478624B2, “Heterocyclic derivatives, pharmaceutical compositions and their use in the treatment or amelioration of cancer” (Tolremo Therapeutics AG, priority 2019, dated 2025).

Columns and labels:
OPM-2 = assay: Assay 2: multiple myeloma cellular efficacy, PrestoBlue cell proliferation/survival; type: cell-based; details: Homo sapiens, 96 h, OPM-2 cells, 4 days
Procedure, shortened: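 Cells seeded at 10000/well and exposed to a compound dose range or vehicle for 4 days, then stained with PrestoBlue for 2 h at 37 °C. Fluorescence was background-subtracted and normalized to vehicle; EC50 came from a four-parameter variable-slope fit against log concentration.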

A375 cells = assay: Assay 1: A375 cells treated with S1152, S1008 and compound, immunofluorescence (sc-365823) signal; type: cell-based; details: 1 μM S1152 + 0.5 μM S1008, one day
Procedure, shortened: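 A375 cells treated one day with 1 μM S1152, 0.5 μM S1008 and compound dose ranges in DMEM/10% FCS, then fixed, permeabilised and immunostained. Green signal normalised to nuclear counterstain (ethidium-type or DAPI), log ratio fitted by four-parameter regression for EC50.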

CBP Bromodomain = biological target: T1, CBP Bromodomain (Homo sapiens, UniProt Q92793); assay: Assay 3: CBP bromodomain binding assay (TR-FRET)
T1 construct: purchased Cayman chemicals 600850
Description: Assay 3 CBP Bromodomain Binding Assay (TR-FRET)
Compounds solutions of 10 mM in DMSO were pre-diluted in DSMO to 25× stock solutions in DMSO. These were then diluted down to 4× in assay buffer. A dilution series in assay buffer was performed keeping the DMSO concentration stable. 5 μl compound in assay buffer was transferred into the assay plate (provided by assay kit) and the TR-FRET assay Cayman chemicals; 600850) was performed using the manufactor's instructions. After 1 hour incubation at room temperature in the darks, assay plates were read in a Tecan M1000 plate reader or a Tecan Spaks reader using the TR-FRET mode (top read; excitation 340 nm bandwidth […]; emission 620 nm bandwidth […]; gain optimal determined for the first well, number of flashes: 5; flash frequency 100 Hz; integration time: 500 μs, lag time: 100 μs, room temperature). The TR-FRET ratio was calculated by deviding 670 nm emission by 620 nm emission. Values were log transformed and non-linear regression with variable slope (4 parameters) was used to fit values to a dose-response curve to evaluate EC50 values.

T1 sequence (Q92793 1085-1192 limits assumed): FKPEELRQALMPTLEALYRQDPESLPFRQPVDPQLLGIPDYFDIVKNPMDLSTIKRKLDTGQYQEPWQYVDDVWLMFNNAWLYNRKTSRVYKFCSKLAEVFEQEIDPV

SMILES	EC50 (A375 cells)	EC50 (CBP Bromodomain)	EC50 (OPM-2)
CC(=O)N1C[C@H](c2nc(Nc3ccccc3)cc(-c3cncnc3)n2)CC[C@@H]1C (racemic) [Compound 00072, (+/−)-cis-1-(2-methyl-5-(6-(phenylamino)-[4,5′-bipyrimidin]-2-yl)piperidin-1-yl)ethan-1-one]	0.2 to 1 µM	0.2 to 1 µM	0.2 to 1 µM
CC(=O)N1C[C@H](c2nc(Nc3cccc(-c4cnn(C)c4)c3)cc(-c3cnccn3)n2)CC[C@@H]1C [Compound 00065, 1-((2S,5R)-2-methyl-5-(4-((3-(1-methyl-1H-pyrazol-4-yl)phenyl)amino)-6-(pyrazin-2-yl)pyrimidin-2-yl)piperidin-1-yl)ethan-1-one]	< 0.2 µM	< 0.2 µM	< 0.2 µM
CC(=O)N1C[C@H](c2nc(Nc3cc(C)nc(N4CCOCC4)c3)cc(-c3cnccn3)n2)CC[C@@H]1C [Compound 00152, 1-((2S,5R)-2-methyl-5-(4-((2-methyl-6-morpholinopyridin-4-yl)amino)-6-(pyrazin-2-yl)pyrimidin-2-yl)piperidin-1-yl)ethan-1-one]	< 0.2 µM	< 0.2 µM	0.2 to 1 µM
CC(=O)N1C[C@H](c2nc(Nc3cc(F)cc(-c4cnoc4)c3)cc(-c3cccnc3)n2)CC[C@@H]1C [Compound 00046, 1-((2S,5R)-5-(4-((3-fluoro-5-(isoxazol-4-yl)phenyl)amino)-6-(pyridin-3-yl)pyrimidin-2-yl)-2-methylpiperidin-1-yl)ethan-1-one]	< 0.2 µM	< 0.2 µM	
CC(=O)N1C[C@H](c2nc(Nc3cc(C)nc(F)c3)cc(-c3cnccn3)n2)CC[C@@H]1C [Compound 00149, 1-((2S,5R)-5-(4-((2-fluoro-6-methylpyridin-4-yl)amino)-6-(pyrazin-2-yl)pyrimidin-2-yl)-2-methylpiperidin-1-yl)ethan1-one]	< 0.2 µM	< 0.2 µM	< 0.2 µM
CC(=O)N1C[C@H](c2nc(Nc3ccnc(F)c3)cc(-c3cccnc3)n2)CC[C@@H]1C [Compound 00104, 1-((2S,5R)-5-(4-((2-fluoropyridin-4-yl)amino)-6-(pyridin-3-yl)pyrimidin-2-yl)-2-methylpiperidin-1-yl)ethan-1-one]	< 0.2 µM	< 0.2 µM	< 0.2 µM
CC(=O)N1C[C@H](c2nc(Nc3cccc(-c4cn(C)nn4)c3)cc(-c3cccnc3)n2)CC[C@@H]1C [Compound 00053, 1-((2S,5R)-2-methyl-5-(4-((3-(1-methyl-1H-1,2,3-triazol-4-yl)phenyl)amino)-6-(pyridin-3-yl)pyrimidin-2-yl)piperidin-1-yl)ethan-1-one]	< 0.2 µM	1 to 10 µM	< 0.2 µM
CC(=O)N1C[C@H](c2nc(Nc3ccc4nccn4c3)cc(-c3cccnc3)n2)CC[C@@H]1C [Compound 00013, 1-((2S,5R)-5-(4-(imidazo[1,2-a]pyridin-6-ylamino)-6-(pyridin-3-yl)pyrimidin-2-yl)-2-methylpiperidin-1-yl)ethan-1-one]	1 to 10 µM	0.2 to 1 µM	
CC(=O)N1C[C@H](c2nc(Nc3cncc(C)c3)cc(-c3cnccn3)n2)CC[C@@H]1C [Compound 00001, 1-((2S,5R)-2-methyl-5-(4-((5-methylpyridin-3-yl)amino)-6-(pyrazin-2-yl)pyrimidin-2-yl)piperidin-1-yl)ethan-1-one]	< 0.2 µM	< 0.2 µM	
CC(=O)N1C[C@H](c2nc(Nc3ccncc3)cc(-c3cccnc3)n2)CC[C@@H]1C (racemic) [Compound 00101, (+/−)-c/s-1-(2-methyl-5-(4-(pyridin-3-yl)-6-(pyridin-4-ylamino)pyrimidin-2-yl)piperidin-1-yl)ethan-1-one]	0.2 to 1 µM	0.2 to 1 µM	

The next lines start with results.

EC50 (A375 cells)	EC50 (CBP Bromodomain)	SMILES	EC50 (OPM-2)
< 0.2 µM	< 0.2 µM	CC(=O)N1C[C@H](c2nc(Nc3cccc(-c4cnn(C)c4)c3)cc(-c3cccnc3)n2)CC[C@@H]1C [Compound 00044, 1-((2S,5R)-2-methyl-5-(4-((3-(1-methyl-1H-pyrazol-4-yl)phenyl)amino)-6-(pyridin-3-yl)pyrimidin-2-yl)piperidin-1-yl)ethan-1-one]	< 0.2 µM
< 0.2 µM	< 0.2 µM	CC(=O)Nc1cc(F)cc(Nc2cc(-c3cncc4c3ccn4C)nc([C@@H]3CC[C@H](C)N(C(C)=O)C3)n2)c1 [Compound 00092, N-(3-((2-((3R,6S)-1-acetyl-6-methylpiperidin-3-yl)-6-(1-methyl-1H-pyrrolo[2,3-c]pyridin-4-yl)pyrimidin-4-yl)amino)-5-fluorophenyl)acetamide]	< 0.2 µM
< 0.2 µM	1 to 10 µM	CC(=O)N1C[C@H](c2nc(Nc3cc(F)cc(-c4cnn(C)c4)c3)cc(-c3cnccn3)n2)CC[C@@H]1C [Compound 00066, 1-((2S,5R)-5-(4-((3-fluoro-5-(1-methyl-1H-pyrazol-4-yl)phenyl)amino)-6-(pyrazin-2-yl)pyrimidin-2-yl)-2-methylpiperidin-1-yl)ethan-1-one]	< 0.2 µM
< 0.2 µM	< 0.2 µM	CC(=O)N1C[C@H](c2nc(Nc3ccnc(F)c3)cc(-c3cnccn3)n2)CC[C@@H]1C [Compound 00128, 1-((2S,5R)-5-(4-((2-fluoropyridin-4-yl)amino)-6-(pyrazin-2-yl)pyrimidin-2-yl)-2-methylpiperidin-1-yl)ethan-1-one]	< 0.2 µM
< 0.2 µM	< 0.2 µM	CC(=O)N1C[C@H](c2nc(Nc3ccnc(C)c3)cc(-c3cncc(C)c3)n2)CC[C@@H]1C [Compound 00103, 1-((2S,5R)-2-methyl-5-(4-(5-methylpyridin-3-yl)-6-((2-methylpyridin-4-yl)amino)pyrimidin-2-yl)piperidin-1-yl)ethan-1-one]	< 0.2 µM
< 0.2 µM	< 0.2 µM	CC(=O)N1C[C@H](c2nc(Nc3ccnc(-c4cn(C)nn4)c3)cc(-c3cnccn3)n2)CC[C@@H]1C [Compound 00168, 1-((2S,5R)-2-methyl-5-(4-((2-(1-methyl-1H-1,2,3-triazol-4-yl)pyridin-4-yl)amino)-6-(pyrazin-2-yl)pyrimidin-2-yl)piperidin-1-yl)ethan-1-one]	< 0.2 µM
< 0.2 µM	< 0.2 µM	CC(=O)N1C[C@H](c2nc(Nc3cncc(C)c3)cc(-c3cccnc3)n2)CC[C@@H]1C [Compound 00009]	0.2 to 1 µM
< 0.2 µM	< 0.2 µM	CNC(=O)c1cc(F)cc(Nc2cc(-c3cccnc3)nc([C@@H]3CC[C@H](C)N(C(C)=O)C3)n2)c1 [Compound 00041, 3-((2-((3R,6S)-1-acetyl-6-methylpiperidin-3-yl)-6-(pyridin-3-yl)pyrimidin-4-yl)amino)-5-fluoro-N-methylbenzamide]	< 0.2 µM
< 0.2 µM	< 0.2 µM	CC(=O)N1C[C@H](c2nc(Nc3ccccc3)cc(-c3cncc4[nH]ccc34)n2)CC[C@@H]1C (racemic) [Compound 00073, (+/−)-c/s-1-(2-methyl-5-(4-(phenylamino)-6-(1H-pyrrolo[2,3-c]pyridin-4-yl)pyrimidin-2-yl)piperidin-1-yl)ethan-1-one]	< 0.2 µM
< 0.2 µM	< 0.2 µM	CC(=O)N1C[C@H](c2nc(Nc3cccc(-c4cn(C)nn4)c3)cc(-c3cncc4c3ccn4C)n2)CC[C@@H]1C [Compound 00086, 1-((2S,5R)-2-methyl-5-(4-((3-(1-methyl-1H-1,2,3-triazol-4-yl)phenyl)amino)-6-(1-methyl-1H-pyrrolo[2,3-c]pyridin-4-yl)pyrimidin-2-yl)piperidin-1-yl)ethan-1-one]	< 0.2 µM
< 0.2 µM	< 0.2 µM	CC(=O)N1C[C@H](c2nc(Nc3cccc4nn(C)cc34)cc(-c3cccnc3)n2)CC[C@@H]1C [Compound 00045, 1-((2S,5R)-2-methyl-5-(4-((2-methyl-2H-indazol-4-yl)amino)-6-(pyridin-3-yl)pyrimidin-2-yl)piperidin-1-yl)ethan-1-one]	0.2 to 1 µM
< 0.2 µM	< 0.2 µM	CC(=O)N1C[C@H](c2nc(Nc3ccnc(C(C)C)c3)cc(-c3cnccn3)n2)CC[C@@H]1C [Compound 00153, 1-((2S,5R)-5-(4-((2-isopropylpyridin-4-yl)amino)-6-(pyrazin-2-yl)pyrimidin-2-yl)-2-methylpiperidin-1-yl)ethan-1-one]	0.2 to 1 µM
< 0.2 µM	< 0.2 µM	CC(=O)N1C[C@H](c2nc(Nc3cc(F)cc(-c4cn(C)nn4)c3)cc(-c3cnccn3)n2)CC[C@@H]1C [Compound 00069, 1-((2S,5R)-5-(4-((3-fluoro-5-(1-methyl-1H-1,2,3-triazol-4-yl)phenyl)amino)-6-(pyrazin-2-yl)pyrimidin-2-yl)-2-methylpiperidin-1-yl)ethan-1-one]	< 0.2 µM
< 0.2 µM	0.2 to 1 µM	CC(=O)N1C[C@H](c2nc(Nc3cccc(C(F)F)c3)cc(-c3cccnc3)n2)CC[C@@H]1C [Compound 00039, 1-((2S,5R)-5-(4-((3-(difluoromethyl)phenyl)amino)-6-(pyridin-3-yl)pyrimidin-2-yl)-2-methylpiperidin-1-yl)ethan1-one]	< 0.2 µM
